Test results reported in publication PMC6792352, “Limited Chemical Structural Diversity Found to Modulate Thyroid Hormone Receptor in the Tox21 Chemical Library” (Environmental Health Perspectives, 2019).
Structures can show the parent of a compound that is named as a salt.

Experiment: in vitro
Conditions: rat, gh3-tre-luc cells, AC50 (uM) modified / 1000

Structure (SMILES)	CC50 at 24 h [µM]
COc1ccccc1/C=C/C=O [trans-2-Methoxycinnamaldehyde]	> 90
O=C(O)c1cc(=O)c2ccccc2o1 [Chromocarb]	> 50
C[C@]12CC[C@H](O)CC1=CC[C@@H]1[C@@H]2CC[C@]2(C)C(=O)CC[C@@H]12 [Dehydroepiandrosterone]	> 90
CNC(=O)c1c(I)c(C(=O)NCC(=O)Nc2c(I)c(C(=O)O)c(I)c(C(=O)NCCO)c2I)c(I)c(N(C)C(C)=O)c1I [Ioxaglic acid]	> 50
CN(C)C(=O)NC1(c2ccccc2)CCN(CC[C@@]2(c3ccc(F)c(F)c3)CN(C(=O)c3ccccc3)CCO2)CC1 [SR144190]	55.6
CN(C1CCCCC1)S(=O)(=O)c1ccccc1N [2-Amino-N-cyclohexyl-N-methylbenzenesulfonamide]	> 90
CC(=O)O[C@H]1C[C@@H]2CC[C@@H]3[C@H](CC[C@@]4(C)[C@H]3C[C@H]([N+]3(C)CCCCC3)[C@@H]4OC(C)=O)[C@@]2(C)C[C@@H]1N1CCCCC1 [Vecuronium bromide]	> 50
Nc1ccc(S(=O)(=O)c2ccc(N)cc2)cc1 [Dapsone]	> 50
C=CC[C@]1(O)CC[C@H]2[C@@H]3CCC4=CC(=O)CCC4=C3C=C[C@@]21C [Altrenogest]	> 50
CCCCN1C[C@H](O)[C@@H](O)[C@H](O)[C@H]1CO [Miglustat]	> 50
CN(C)C(=O)C1(N2CCCCC2)CCN(CC[C@@]2(c3ccc(Cl)c(Cl)c3)CN(C(=O)c3ccccc3)CCO2)CC1 [SSR 241586 HCl]	4.07
Cc1ccc(N)cc1S(=O)(=O)O [5-Amino-2-methylbenzenesulfonic acid]	> 90
CC(O)COC(C)COC(C)CO (centres unmarked) [Tripropylene glycol]	> 90
CCCCCCCCCCCCCCCC(=O)OC(C)C [Hexadecanoic acid, 1-methylethyl ester]	> 50
O=C(/C=C/c1ccc([N+](=O)[O-])cc1)c1ccccc1 [4-Nitrochalcone]	> 90
CN/C(=N\c1ccc(C2=NNC(=O)CC2C)cc1)NC#N (centres unmarked) [Siguazodan]	> 50
CCCCCCCC(=O)Oc1c(Br)cc(C#N)cc1Br [Bromoxynil octanoate]	> 90
ON=CC=NO [Glyoxime]	> 90
N#CC(C#N)=NNc1cccc(Cl)c1 [Carbonyl cyanide chlorophenylhydrazone]	1.97
CC(=O)Oc1ccc([N+](=O)[O-])cc1CCl [2-Acetoxy-5-nitrobenzyl chloride]	67
Cc1cn([C@H]2C[C@H](F)[C@@H](CO)O2)c(=O)[nH]c1=O [Alovudine]	> 50
Cc1ccc(C(=O)O)cc1[N+](=O)[O-] [4-Methyl-3-nitrobenzoic acid]	> 90
OCC(CO)(CO)COCC(CO)(CO)CO [Dipentaerythritol]	> 90

Structure (SMILES)	CC50 at 24 h [µM]
O=C(O)c1ccccc1C(=O)Nc1ccc(S(=O)(=O)Nc2nccs2)cc1 [Phthalylsulfathiazole]	> 50
OC[C@H]1O[C@@H](OCCc2ccc(O)cc2)[C@H](O)[C@@H](O)[C@@H]1O [Salidroside]	> 50
Cc1cc(O)c(C(=O)N[C@@H](C(=O)N[C@@H]2C(=O)N3C(C(=O)O)=C(CSc4nnnn4C)CS[C@H]23)c2ccc(O)cc2)cn1 [Cefpiramide acid]	> 50
CC(=O)Nc1ccc(S(=O)(=O)Cl)cc1 [4-(Acetylamino)benzenesulfonyl chloride]	> 90
O=c1oc2ccccc2c(O)c1C(CC(O)c1ccc(-c2ccc(Br)cc2)cc1)c1ccccc1 (centres unmarked) [Bromadiolone]	> 90
O[C@@H](CNC[C@H](O)[C@H]1CCc2cc(F)ccc2O1)[C@@H]1CCc2cc(F)ccc2O1 (racemic) [rac Nebivolol hydrochloride]	7.99
C=C(C)C(=O)NCCC[N+](C)(C)C [N,N,N-Trimethyl-3-[(2-methylacryloyl)amino]propan-1-aminium chloride]	> 90
CC(C)C[C@H](NC(=O)CNC(=O)[C@H](Cc1ccc(O)cc1)NC(=O)[C@H](CO)NC(=O)[C@H](Cc1c[nH]c2ccccc12)NC(=O)[C@H](Cc1cnc[nH]1)NC(=O)[C@@H]1CCC(=O)N1)C(=O)N[C@@H](CCCNC(=N)N)C(=O)N1CCC[C@H]1C(=O)NCC(N)=O [Gonadorelin hydrochloride]	> 50
O=S(=O)(O)C(F)(F)F [Trifluoromethanesulfonic acid]	> 90
CC(=O)OCC1=C(C(=O)O)N2C(=O)[C@@H](N)[C@H]2SC1 [7-Aminocephalosporanic acid]	> 20
CNC(=O)[C@H](Cc1c[nH]c2ccccc12)NC(=O)[C@@H](CC(=O)NO)CC(C)C [Ilomastat]	1.28
O=C(O)C(Cc1cc(I)c(O)c(I)c1)c1ccccc1 (centres unmarked) [Iodoalphionic acid]	> 50
CNc1cc(OC)c(C(=O)N[C@@H]2CCN(Cc3ccccc3)[C@@H]2C)cc1Cl (racemic) [Nemonapride]	> 50
OC[C@H]1OC(O)[C@H](O)[C@@H](O)[C@@H]1O (stereo partly drawn) [D-Glucose]	> 90
CN(C)CCOC(c1ccc(Cl)cc1)c1ccccn1 (centres unmarked) [Carbinoxamine maleate]	23
CC(C)(C)c1ccc(CCOc2ncnc3ccccc23)cc1 [Fenazaquin]	> 90
NNc1nc(-c2ccc([N+](=O)[O-])cc2)cs1 [2-Hydrazino-4-(4-nitrophenyl)thiazole]	58.8
C[Si](C)(C)Cl [Chlorotrimethylsilane]	> 90
CC1=C2C[C@H]3[C@@H](CC=C4C[C@@H](O)CC[C@@]43C)[C@@H]2CC[C@]12O[C@@H]1C[C@H](C)CN[C@H]1[C@H]2C [Cyclopamine]	5.73
O=c1c(O)c(O)c1=O [Squaric acid]	> 90
CC(C)(Oc1ccc(Cl)cc1)C(=O)O [Clofibric acid]	> 50
CN(C)CCOC(=O)C(c1ccccc1)C1(O)CCCC1 (centres unmarked) [Cyclopentolate hydrochloride]	> 50
CC(=O)CC(=O)Nc1ccccc1C [N-(2-Methylphenyl)-3-oxobutanamide]	> 90

Structure (SMILES)	CC50 at 24 h [µM]
Cn1cc([S+](C)[O-])c(=O)c2ccc(F)cc21 (centres unmarked) [Flosequinan]	> 50
FC(F)(F)c1cccc(C2=CCN(CCc3ccc4ccncc4c3)CC2)c1 [SSR150106]	76.9
CCCCCC(=O)O [Hexanoic acid]	> 90
CCCCC=O [Pentanal]	> 90
CN(C[C@@H](CC[N+]12CCC(C3CCCCC3)(CC1)CC2)c1ccc(Cl)c(Cl)c1)C(=O)c1cc(C(F)(F)F)cc(C(F)(F)F)c1 [UK-337312]	17
CCCCC(CC)C(=O)Cl (centres unmarked) [2-Ethylhexanoyl chloride]	> 90
N#CCc1cccc(C(F)(F)F)c1 [[3-(Trifluoromethyl)phenyl]acetonitrile]	> 90
CC(C)Nc1ccc(NC(C)C)c2c1C(=O)c1ccccc1C2=O [1,4-Bis(N-isopropylamino)anthraquinone]	> 50
N#CCc1ccccc1[N+](=O)[O-] [(2-Nitrophenyl)acetonitrile]	> 90
CC(=O)Oc1cc(C(F)(F)F)ccc1C(=O)O [Triflusal]	> 20
CC(=O)SCC(Cc1ccccc1)C(=O)NCC(=O)OCc1ccccc1 (centres unmarked) [Racecadotril]	> 20
C=Cc1ccc(C)cc1 [4-Methylstyrene]	> 90
COc1cnc(OC)n2nc(NS(=O)(=O)c3c(OCC(F)F)cccc3C(F)(F)F)nc12 [Penoxsulam]	> 90
CCCCC(=O)N(C)C [N,N-Dimethylpentanamide]	> 90
CCCCNCCCC [N-Butyl-1-butanamine]	> 90
CCCCCOC(C)=O [Pentyl acetate]	> 90
O=C(O)c1nc(Cl)c(Cl)c(Cl)c1Cl [3,4,5,6-Tetrachloropyridine-2-carboxylic acid]	> 90
CC/C=C\CCOC(=O)CC [(3Z)-Hex-3-en-1-yl propanoate]	> 90
Cc1ccccc1Cl [2-Chlorotoluene]	> 90
CCCCCCCC/C=C\CCCCCCCC(=O)OC[C@@H](O)[C@H]1OC[C@H](O)[C@H]1O [Sorbitan, mono-(9Z)-9-octadecenoate]	> 50
CN(CCCN1c2ccccc2CCc2ccccc21)CC(=O)c1ccc(Cl)cc1 [Lofepramine hydrochloride]	22
CN(Cc1ccc(C(C)(C)C)cc1)Cc1cccc2ccccc12 [Butenafine]	27.3
CCOC(=O)CC(C)=O [Ethyl acetoacetate]	> 90

Same assay, conditions: rat, gh3-tre-luc cells, AC50 (uM) modified / 1000, Tox21_110001=Tox21_110843; viability, 1 nM T3 present, 24 h

Structure (SMILES)	CC50 at 24 h [µM]
COP(=O)(OC)C(O)C(Cl)(Cl)Cl (centres unmarked) [Trichlorfon]	> 50

Same assay, conditions: rat, gh3-tre-luc cells, AC50 (uM) modified / 1000, Tox21_110001=Tox21_111324; viability, 1 nM T3 present, 24 h

Structure (SMILES)	CC50 at 24 h [µM]
NCCc1cc(O)c(O)cc1O [Oxidopamine hydrochloride]	45.2

Same assay, conditions: rat, gh3-tre-luc cells, AC50 (uM) modified / 1000, Tox21_110001=Tox21_112608; viability, 1 nM T3 present, 24 h

Structure (SMILES)	CC50 at 24 h [µM]
CN1C(=O)CC(=O)N(c2ccccc2)c2cc(Cl)ccc21 [Clobazam]	> 50

Same assay, conditions: rat, gh3-tre-luc cells, AC50 (uM) modified / 1000, Tox21_110001=Tox21_201575; viability, 1 nM T3 present, 24 h

Structure (SMILES)	CC50 at 24 h [µM]
COCCl [Chloromethyl methyl ether]	> 90

Same assay, conditions: rat, gh3-tre-luc cells, AC50 (uM) modified / 1000, Tox21_110001=Tox21_201607; viability, 1 nM T3 present, 24 h

Structure (SMILES)	CC50 at 24 h [µM]
COP(=O)(OC)C(O)C(Cl)(Cl)Cl (centres unmarked) [Trichlorfon]	> 90

Same assay, conditions: rat, gh3-tre-luc cells, AC50 (uM) modified / 1000, Tox21_110001=Tox21_202983; viability, 1 nM T3 present, 24 h

Structure (SMILES)	CC50 at 24 h [µM]
Cc1ccccc1OP(=O)(Oc1ccccc1C)Oc1ccccc1C [Tri-o-cresyl phosphate]	63.4

Same assay, conditions: rat, gh3-tre-luc cells, AC50 (uM) modified / 1000, Tox21_110001=Tox21_301125; viability, 1 nM T3 present, 24 h

Structure (SMILES)	CC50 at 24 h [µM]
CCOP(=O)(OCC)Oc1cc(C)nc(C(C)C)n1 [Diazoxon]	> 90

Same assay, conditions: rat, gh3-tre-luc cells, AC50 (uM) modified / 1000, Tox21_110001=Tox21_302939; viability, 1 nM T3 present, 24 h

Structure (SMILES)	CC50 at 24 h [µM]
COCCl [Chloromethyl methyl ether]	> 30
